Measurements taken from US9650339B2, “Inhibitors of histone demethylases” (Gilead Sciences, Inc., priority 2013, dated 2017).

Tests used:
KDM2B (FBXL10) = target: T1, KDM2B (FBXL10) (Homo sapiens, UniProt Q8NHM5); experiment: Histone lysine demethylase AlphaLISA assay, KDM2B; type: biochemical; conditions: read-out: KDM2B HDME Inhibition IC50
T1 sequence (Q8NHM5 1-650): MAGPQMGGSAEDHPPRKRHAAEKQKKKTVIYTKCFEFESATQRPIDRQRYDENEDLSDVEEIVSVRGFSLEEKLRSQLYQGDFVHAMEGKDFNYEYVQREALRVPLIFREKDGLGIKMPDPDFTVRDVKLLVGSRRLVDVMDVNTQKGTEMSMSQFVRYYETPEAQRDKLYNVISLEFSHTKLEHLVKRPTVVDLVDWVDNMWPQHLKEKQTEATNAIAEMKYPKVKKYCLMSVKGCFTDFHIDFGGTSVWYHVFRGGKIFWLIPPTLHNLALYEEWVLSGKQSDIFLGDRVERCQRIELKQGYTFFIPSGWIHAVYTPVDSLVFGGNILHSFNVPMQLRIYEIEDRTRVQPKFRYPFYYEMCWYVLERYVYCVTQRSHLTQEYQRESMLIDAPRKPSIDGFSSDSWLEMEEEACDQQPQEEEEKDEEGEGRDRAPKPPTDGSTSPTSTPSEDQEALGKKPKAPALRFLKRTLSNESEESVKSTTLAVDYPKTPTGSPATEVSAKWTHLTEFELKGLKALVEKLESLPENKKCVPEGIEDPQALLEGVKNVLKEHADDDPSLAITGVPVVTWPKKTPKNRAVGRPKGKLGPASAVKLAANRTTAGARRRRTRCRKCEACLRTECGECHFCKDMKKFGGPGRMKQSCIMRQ
Experimental: (§1) Assays are performed analogously to the protocol described by PerkinElmer (Roy et al. PerkinElmer Technical Note: AlphaLISA #12, April 2011)
(§2) Enzymes are dissolved in enzyme buffer and incubated for 10 min before being added to 3% DMSO solutions of compounds in enzyme buffer. Incubated for another 10 minutes, before substrate solution is added and the reaction mixture is incubated at room temperature. 10 μL acceptor beads, suspended in Epigenetic Buffer (Perkin Elmer AL008) from stock, are added and the suspension is incubated in the dark at room temperature, before a suspension of streptavidin donor beads (Perkin Elmer 6760002) in Epigenetic Buffer is added. After incubation at room temperature in the dark the plates are read. […]
BH3K36M2: RKAAPATGGVK(Me2)KPHRYRPGTVK-(BIOTIN)? (Anaspec)
(§3) Substrate Solution: Substrate, 25 μM L-Asc, and 10 μM α-KG in Buffer A.

H3K4me3 mark = experiment: Histone lysine demethylase immunofluorescence assay, non-transfected U2OS cells; type: cell-based; conditions: Homo sapiens, staining of the H3K4me3 mark, 20 hours incubation with compound
Experimental: U2OS cells were harvested and seeded into multi well plates into media containing compound. The media used was DMEM containing 5% FBS and pen/strep. 20 hours after incubation of cells with compounds, the cells were washed once in PBS, harvested by fixation with formaldehyde 4% aqueous solution, and washed in PBS. Subsequently, the cells were permeabilized in PBS with 0.2% Triton X-100. Blocking was performed in PBS with 0.2% Triton X-100 and 5% FBS. The cells were incubated with αH3K4me3 primary antibody (Cell Signaling, #9751S) in blocking solution over night at 4° C. After incubation with primary antibody, the cells were washed with PBS, incubated with secondary antibody (Alexa fluor 594 goat anti rabbit IgG, Invitrogen, A11012) and Hoechst, (Sigma, 33342) in blocking solution, and washed again with PBS. Finally, PBS was added and high throughput imaging and analysis were performed by an IN Cell Analyzer 1000 (GE Healthcare). The IC50 values were based on an average measure of the staining of the H3K4me3 mark in cells.

KDM7 (PHF8) = target: T2, KDM7 (PHF8) (Homo sapiens, UniProt Q9UPP1); experiment: Histone lysine demethylase AlphaLISA assay, KDM7; type: biochemical; conditions: read-out: PHF8 HDME Inhibition IC50
T2 construct: KDM7 (PHF8); BRIC; 1-1322; Bac
T2 sequence (Q9UPP1 37-440 limits assumed): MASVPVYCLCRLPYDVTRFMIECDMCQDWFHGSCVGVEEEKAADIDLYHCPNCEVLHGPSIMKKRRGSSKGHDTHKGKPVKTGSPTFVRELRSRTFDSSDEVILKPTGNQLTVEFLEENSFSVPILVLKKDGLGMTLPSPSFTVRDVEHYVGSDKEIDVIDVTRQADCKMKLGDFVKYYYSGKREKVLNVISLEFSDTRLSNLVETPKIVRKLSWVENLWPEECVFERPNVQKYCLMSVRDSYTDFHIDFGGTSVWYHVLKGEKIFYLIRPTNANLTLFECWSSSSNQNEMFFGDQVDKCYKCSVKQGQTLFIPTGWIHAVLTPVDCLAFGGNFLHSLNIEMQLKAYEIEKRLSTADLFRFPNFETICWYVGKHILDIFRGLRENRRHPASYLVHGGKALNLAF
Experimental: as §1, §2
BK9M2: Biotin-ARTKQTAR(KMe2)STGGKAPRKQ-NH2 (AnaSpec 64359)
BK9M1: Biotin-ARTKQTAR(KMe1)STGGKAPRKQ-NH2 (AnaSpec 64358) […]
as §3

KDM4C (JMJD2C) = target: T3, KDM4C (JMJD2C) (Homo sapiens, UniProt Q9H3R0); experiment: Histone lysine demethylase AlphaLISA assay, KDM4C; type: biochemical; conditions: read-out: KDM4C HDME Inhibition IC50
T3 sequence (Q9H3R0 1-349): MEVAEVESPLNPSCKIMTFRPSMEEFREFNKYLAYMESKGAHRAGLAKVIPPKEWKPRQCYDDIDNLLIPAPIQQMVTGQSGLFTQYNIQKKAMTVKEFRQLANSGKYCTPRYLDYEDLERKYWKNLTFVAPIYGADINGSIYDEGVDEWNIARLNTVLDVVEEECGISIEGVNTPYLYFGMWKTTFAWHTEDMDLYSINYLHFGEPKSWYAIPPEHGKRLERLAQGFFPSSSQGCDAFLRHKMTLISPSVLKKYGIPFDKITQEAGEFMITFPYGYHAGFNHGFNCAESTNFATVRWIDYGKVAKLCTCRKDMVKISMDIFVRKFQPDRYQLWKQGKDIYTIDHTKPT
Experimental: as §1
Enzymes are dissolved in enzyme buffer and incubated for 10 min before being added to 3% DMSO solutions of compounds in enzyme buffer. Incubated for another 10 minutes, before substrate solution is added and the reaction mixture is incubated at room temperature. 10 μL acceptor beads, suspended in Epigenetic Buffer (Perkin Elmer AL008) from stock, are added and the suspension is incubated in the dark at room temperature, before a suspension of streptavidin donor beads (Perkin Elmer 6760002) in Epigenetic Buffer is added. After incubation at room temperature in the dark the plates are read.
BK9M3: Biotin-ARTKQTAR(KMe3)STGGKAPRKQ-NH2 (Caslo, Denmark) […]
as §3

KDM5B (PLU-1) = target: T4, KDM5B (PLU-1) (Homo sapiens, UniProt Q9UGL1); experiment: Histone lysine demethylase AlphaLISA assay, KDM5B; type: biochemical; conditions: read-out: KDM5B HDME Inhibition IC50
T4 sequence (Q9UGL1 1-809): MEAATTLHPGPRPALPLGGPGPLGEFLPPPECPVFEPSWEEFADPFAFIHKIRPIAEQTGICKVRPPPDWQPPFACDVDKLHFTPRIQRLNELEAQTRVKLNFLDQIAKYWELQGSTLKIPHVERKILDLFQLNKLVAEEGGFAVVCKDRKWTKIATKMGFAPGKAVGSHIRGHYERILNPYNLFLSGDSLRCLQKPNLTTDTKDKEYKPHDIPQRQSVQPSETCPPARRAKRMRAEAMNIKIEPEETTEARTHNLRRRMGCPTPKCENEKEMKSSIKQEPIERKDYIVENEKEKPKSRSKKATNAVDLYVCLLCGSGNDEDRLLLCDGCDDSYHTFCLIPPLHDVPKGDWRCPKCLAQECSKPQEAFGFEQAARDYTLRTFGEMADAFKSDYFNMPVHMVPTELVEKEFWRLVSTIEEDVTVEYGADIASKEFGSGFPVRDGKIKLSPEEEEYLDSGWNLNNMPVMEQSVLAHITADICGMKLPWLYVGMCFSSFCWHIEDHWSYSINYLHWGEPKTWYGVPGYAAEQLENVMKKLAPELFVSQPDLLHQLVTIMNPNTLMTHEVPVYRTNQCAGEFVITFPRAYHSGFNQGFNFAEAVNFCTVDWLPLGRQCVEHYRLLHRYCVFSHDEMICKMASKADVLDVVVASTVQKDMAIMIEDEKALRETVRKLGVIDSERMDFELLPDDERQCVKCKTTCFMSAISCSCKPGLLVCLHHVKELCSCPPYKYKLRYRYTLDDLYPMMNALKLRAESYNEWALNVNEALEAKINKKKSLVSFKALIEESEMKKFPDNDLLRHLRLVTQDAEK
Experimental: as §1, §2
H3K4M3B: H-ART(Kme3)QTARKSTGGKAPRKQLA-NH-Biotin (Caslo, Denmark) […]
as §3

MCF7 cells = experiment: Cell proliferation assay MCF7; type: cell-based; conditions: MCF7 human breast cancer cells; 120 hours; ATPlite 1 Step
Experimental: MCF7 cells were seeded in multi well plates at a density optimized to give approximately 90% confluent cells at the time of harvest. Cells were incubated for 24 hours before addition of compound. Compounds were diluted in complete medium and added to the plates in duplicates. The final concentration of DMSO was maximum 0.5%. Complete medium used was DMEM with GlutaMAX containing 10% FBS and pen/strep.
120 hours after addition of compounds, the plates were harvested and analyzed by ATPlite 1 Step (Perkin Elmer, cat no 6016739) according to the manufactures recommendation.

KDM6A (UTX) = KDM6A (UTX) (Homo sapiens, UniProt O15550); experiment: Histone lysine demethylase AlphaLISA assay, KDM6A; type: biochemical; conditions: read-out: KDM6A HDME Inhibition IC50
KDM6A (UTX), sequence (O15550 919-1401): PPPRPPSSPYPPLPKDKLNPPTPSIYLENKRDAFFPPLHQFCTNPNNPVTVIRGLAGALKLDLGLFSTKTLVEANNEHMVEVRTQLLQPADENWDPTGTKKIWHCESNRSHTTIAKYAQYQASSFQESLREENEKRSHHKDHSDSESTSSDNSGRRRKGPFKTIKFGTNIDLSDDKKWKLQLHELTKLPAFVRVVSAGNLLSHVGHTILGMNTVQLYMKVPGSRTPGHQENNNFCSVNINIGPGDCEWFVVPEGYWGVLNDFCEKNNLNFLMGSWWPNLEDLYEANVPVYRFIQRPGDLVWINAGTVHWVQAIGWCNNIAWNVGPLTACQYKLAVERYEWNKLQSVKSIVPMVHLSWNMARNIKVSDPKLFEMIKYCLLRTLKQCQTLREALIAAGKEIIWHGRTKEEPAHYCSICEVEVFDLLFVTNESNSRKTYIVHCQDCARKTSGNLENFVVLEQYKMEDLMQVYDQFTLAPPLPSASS
Experimental: as §1, §2
BK27M3: Biotin-ATKAAR(Kme3)SAPATGGVKKPHRY-NH2? (Caslo, Denmark) […]
as §3

[1] = test system: OPM-2 subcutaneous mouse xenograft model of multiple myeloma; experiment: Inhibition of tumor growth in mouse xenograft model; type: in vivo, NOD/SCID mice (Mus Musculus); conditions: QD × 4/week × 2
From the text: Briefly, NOD/SCID mice γ-irradiated with ^60Co (200 rad) (12 animals/group) were inoculated subcutaneously with 8×10^6 OPM-2 cells assisted with Matrigel. Dosing according to the table below started when tumors reached an average size of ˜100 mm^3 (day 15). Dosing continued until the average size of tumors in the vehicle group reached ˜2000 mm^3 (day 31).
Animals were 7 weeks old female NOD/SCID mice (Mus Musculus), supplied by Beijing HFK Bio-Technology Co. Ltd. (Beijing, china). Body weight was approx. 16-23 g. Before commencement of treatment, all animals were weighed and tumor volumes were measured, and mice were assigned into groups using randomized block design based upon their tumor volumes.
OPM-2 tumor cells were maintained in vitro in RPMI1640 medium supplemented with 20% fetal bovine serum at 37° C. in an atmosphere of 5% CO2 in air. The tumor cells were routinely subcultured twice weekly. The cells growing in an exponential growth phase were harvested and counted for tumor inoculation.
Tumor sizes were measured three times weekly in two dimensions using a caliper, and the volume was expressed in mm^3 using the formula: V=0.5 a×b^2 where a and b were the long and short diameters of the tumor, respectively.

IC50 (KDM2B (FBXL10)) [nM] | IC50 (H3K4me3 mark) [nM] | IC50 (KDM7 (PHF8)) [nM] | IC50 (KDM4C (JMJD2C)) [nM] | IC50 (KDM5B (PLU-1)) [nM] | EC50 (MCF7 cells) [nM] | IC50 (KDM6A (UTX)) [nM] | SMILES | Tumor Volume ([1]; day 15 after inoculation (start of dosing)) [mm^3] | Tumor Volume ([1]; day 17 after inoculation) [mm^3] | Tumor Volume ([1]; day 19 after inoculation) [mm^3] | Tumor Volume ([1]; day 21 after inoculation) [mm^3] | Tumor Volume ([1]; day 24 after inoculation) [mm^3] | Tumor Volume ([1]; day 26 after inoculation) [mm^3] | Tumor Volume ([1]; day 28 after inoculation) [mm^3] | Tumor Volume ([1]; day 31 after inoculation) [mm^3]
> 2500 | < 250 | > 2500 | > 2500 | < 250 | 250 to 2500 | > 2500 | CCN(CC)CCCCNCc1cc(CNC(=O)C(=O)O)ccn1 [Compound 27, ({[2-({[4-(diethylamino)-butyl]amino}methyl)pyridin-4-yl]methyl}carbamoyl)-formic acid] |  |  |  |  |  |  |  | 
> 2500 | < 250 | > 2500 | 250 to 2500 | < 250 | < 250 | > 2500 | CCN(CCN(C)C)C(=O)CNCc1cc(/C=N/CC2(CO)CC2)ccn1 [Compound 88, N-[2-(dimethylamino)-ethyl]-N-ethyl-2-[({4-[({[1-(hydroxymethyl)cyclopropyl]methyl}imino)methyl]pyridin-2-yl}methyl)amino] acetamide] |  |  |  |  |  |  |  | 
 |  |  |  |  |  |  | Nc1cccc2c1CN(C1CCC(=O)NC1=O)C2=O (stereo not shown) [Lenolidomide, reference compound] | 101 ± 12 | 156 ± 26 | 178 ± 36 | 266 ± 56 | 395 ± 92 | 509 ± 116 | 767 ± 169 | 1148 ± 175
